The source of these data is US6365137B1, “Skin whitening agents” (Collaborative Laboratories, Inc., priority 1999, dated 2002).

Assay [1] has as its system Cloudman S91 melanocytes. The assay can be described thus: Cell-based whitening/tanning assay (melanocyte pigmentation assay). The conditions noted are these: concentration 30 (30μM in method), 5-day treatment, 10nM MSH. Here is the method:
The melanocyte pigmentation assay measures a test sample's ability to inhibit pigmentation. […] After a 5-day treatment period with each condition tested in triplicate wells, the cells were harvested by washing with PBS and adding 5% trichloroacetic acid to each well. After a 15 minute incubation the acid was aspirated and replaced with 200μl/well of 10% dimethyl sulfoxide/1N sodium hydroxide. The plates were sealed and incubated at 65° C. for 30 minutes. 200μl of each digestion mixture was then transferred to a well of a 96-well microtiter plate and optical densities were read at 405 nm.
An EC50 (the concentration of test sample that inhibits 50% of pigmentation) was calculated for each sample.

For assay [2], the system named is mushroom tyrosinase (EC 1.14.18.1). The assay can be described thus: Tyrosinase inhibition assay (test for whitening activity). The assay is classed as biochemical. How it is done: Tyrosinase activity is determined in reaction mixtures containing […], 30 units/ml of mushroom tyrosinase (EC 1.14.18.1), 75 mM sodium phosphate (pH 7.5), and test sample at the indicated concentrations. The reaction is conducted at room temperature and is monitored by measuring the increase in OD405 as melanin pigment is produced.
Tyrosinase activity was determined by measuring the rate of change of optical density at 490 nm as tyrosine was converted into dopachrome. (Tyrosinase catalyzes the conversion of tyrosine into DOPA quinone, which spontaneously converts into dopachrome.) The rate of tyrosinase activity in the presence of various concentrations of test sample was measured at room temperature in a reaction mixture containing 50 mM sodium phosphate (pH 6.75), 275 μM tyrosine and 25U/ml mushroom tyrosinase (wherein U refers to the units of enzyme activity. Readings were made at one minute intervals for ten minutes and the reaction rate was calculated by linear regression. Each concentration was run in triplicate. Inhibition of tyrosinase activity was expressed as a percentage of the activity measured for the untreated control mixture (no test sample). An EC50 (the concentration of test sample that inhibits 50% of tyrosinase activity) was calculated.

In the case of `Oc1ccc(O)cc1` [Hydroquinone], in assay [1] (Melanocyte, 120 h, read-out: % Stimulation (+)/ Inhibition (−) of pigmentation), the inhibition at 30 µM stood at 36.6%. Also, the “mean (optical density at 405 nm, pigmentation)” value in assay [1] worked out at 0.801. Further, the “% inhibition (tyrosinase)” value in assay [2] (concentration 1.25 (M)) is reported as 26.7%; in assay [2] (concentration 2.5 (M)), 45.5%; in assay [2] (concentration 10.5 (M)), 75.8%; in assay [2] (concentration 20 (M)) it was 92.2%. Besides, the “mod/min mean (tyrosinase reaction rate)” value in assay [2] (concentration 1.25 (M)) is reported as 7.95 mod/min; in assay [2] (concentration 2.5 (M)) it was 5.92 mod/min; in assay [2] (concentration 10.5 (M)), 2.63 mod/min; in assay [2] (concentration 20 (M)) it was 0.85 mod/min.
